Experimental data published in ChEMBL document CHEMBL1201862, “PubChem BioAssay data set” (2004).
“And” between values parts separate entries of the source, which are not always exact repeats. Identical values can stand only once.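 Interpolation was linear, between the two tested concentrations surrounding the appropriate level; five concentrations were tested over 48 hours in 96-well plates. Abbreviation: GI50, concentration required for 50% inhibition of growth.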 The source made the active and inactive calls. Rule as the data show it: active = GI50 up to about 1.1 µM and inactive = higher.

How the values were obtained:
Test in all cases: inhibition of tumour cell growth, NCI panel, 48 h
[1] = tested on: A498
[2] = tested on: A549
[3] = tested on: CCRF-CEM
[4] = tested on: COLO 205
[5] = tested on: EKVX
[6] = tested on: HOP-62
[7] = tested on: K562
[8] = tested on: KM12
[9] = tested on: LOX IMVI
[10] = tested on: OVCAR-3
[11] = tested on: OVCAR-4
[12] = tested on: RPMI-8226
[13] = tested on: SF-295
[14] = tested on: SF-539
[15] = tested on: SW-620
[16] = tested on: UACC-257
[17] = tested on: UACC-62
[18] = tested on: HCC 2998

COc1ccc(C2=CC3CCC2C3)cc1 (configuration not stated)
GI50 [1]: 77.3 µM (inactive)
GI50 [2]: > 100 µM (inactive)
GI50 [3]: > 100 µM (inactive)
GI50 [4]: > 100 µM (inactive)
GI50 [5]: > 100 µM (inactive)
GI50 [6]: > 100 µM (inactive)
GI50 [7]: > 100 µM (inactive)
GI50 [8]: > 100 µM (inactive)
GI50 [9]: > 100 µM (inactive)
GI50 [10]: > 100 µM (inactive)
GI50 [11]: > 100 µM (inactive)
GI50 [12]: > 100 µM (inactive)
GI50 [13]: > 100 µM (inactive)
GI50 [14]: > 100 µM (inactive)
GI50 [15]: > 100 µM (inactive)
GI50 [16]: > 100 µM (inactive)
GI50 [17]: > 100 µM (inactive)

O=C(O)C1Cc2[nH]c3ccccc3c2C2CCCC12 (configuration not stated)
GI50 [1]: > 100 µM (inactive)
GI50 [2]: > 100 µM (inactive)
GI50 [3]: > 100 µM (inactive)
GI50 [4]: > 100 µM (inactive)
GI50 [5]: > 100 µM (inactive)
GI50 [18]: > 100 µM (inactive)
GI50 [7]: > 100 µM (inactive)
GI50 [8]: > 100 µM (inactive)
GI50 [9]: > 100 µM (inactive)
GI50 [10]: > 100 µM (inactive)
GI50 [11]: > 100 µM (inactive)
GI50 [13]: > 100 µM (inactive)
GI50 [14]: > 100 µM (inactive)
GI50 [15]: > 100 µM (inactive)
GI50 [16]: > 100 µM (inactive)
GI50 [17]: > 100 µM (inactive)

C1=CC(=NN=P(c2ccccc2)(c2ccccc2)c2ccccc2)C=C1
GI50 [2]: > 100 µM (inactive)
GI50 [3]: > 100 µM (inactive)
GI50 [4]: > 100 µM (inactive)
GI50 [5]: > 100 µM (inactive)
GI50 [18]: > 100 µM (inactive)
GI50 [6]: > 100 µM (inactive)
GI50 [7]: 64 µM (inactive)
GI50 [8]: > 100 µM (inactive)
GI50 [9]: > 100 µM (inactive)
GI50 [10]: > 100 µM (inactive)
GI50 [11]: > 100 µM (inactive)
GI50 [12]: > 100 µM (inactive)
GI50 [15]: > 100 µM (inactive)
GI50 [16]: > 100 µM (inactive)
GI50 [17]: > 100 µM (inactive)

C#C[C@H]1CCCCCC1O (some centres not stated)
GI50 [1]: > 100 µM (inactive)
GI50 [2]: > 100 µM (inactive)
GI50 [3]: 59 µM (inactive)
GI50 [4]: > 100 µM (inactive)
GI50 [5]: > 100 µM (inactive)
GI50 [18]: > 100 µM (inactive)
GI50 [6]: > 100 µM (inactive)
GI50 [7]: > 100 µM (inactive)
GI50 [8]: > 100 µM (inactive)
GI50 [9]: 29 µM (inactive)
GI50 [10]: > 100 µM (inactive)
GI50 [11]: > 100 µM (inactive)
GI50 [13]: > 100 µM (inactive)
GI50 [14]: > 100 µM (inactive)
GI50 [15]: 23.3 µM (inactive)
GI50 [16]: > 100 µM (inactive)
GI50 [17]: > 100 µM (inactive)

CCCCCCCCCCSCC(CO)NC(=O)/C=C/c1c(C)[nH]c(=O)[nH]c1=O (configuration not stated)
GI50 [2]: 32.8 µM (inactive) and > 50 µM (inactive)
GI50 [3]: 259 nM (active) and 258 nM (active)
GI50 [4]: 762 nM (active) and 1.19 µM (inactive)
GI50 [5]: 3.93 µM (inactive) and 2.01 µM (inactive)
GI50 [18]: 1.08 µM (active) and 1.17 µM (inactive)
GI50 [6]: 2.03 µM (inactive) and 3.24 µM (inactive)
GI50 [7]: 908 nM (active) and 1.12 µM (inactive)
GI50 [8]: 1.42 µM (inactive) and 2.05 µM (inactive)
GI50 [9]: 1.29 µM (inactive) and 1.42 µM (inactive)
GI50 [10]: 916 nM (active) and 798 nM (active)
GI50 [12]: 23.1 µM (inactive) and 33.5 µM (inactive)
GI50 [13]: 29.1 µM (inactive) and 17.9 µM (inactive)
GI50 [14]: 1.46 µM (inactive) and 1.41 µM (inactive)
GI50 [15]: 1.61 µM (inactive) and 1.51 µM (inactive)
GI50 [17]: 1.03 µM (active) and 1.17 µM (inactive)

CCCn1cc2c(SC)nc(SC)nc2n1
GI50 [1]: > 100 µM (inactive)
GI50 [2]: > 100 µM (inactive)
GI50 [3]: > 100 µM (inactive)
GI50 [4]: > 100 µM (inactive)
GI50 [5]: > 100 µM (inactive)
GI50 [18]: > 100 µM (inactive)
GI50 [7]: > 100 µM (inactive)
GI50 [8]: > 100 µM (inactive)
GI50 [9]: > 100 µM (inactive)
GI50 [11]: > 100 µM (inactive)
GI50 [12]: > 100 µM (inactive)
GI50 [13]: > 100 µM (inactive)
GI50 [14]: > 100 µM (inactive)
GI50 [15]: > 100 µM (inactive)
GI50 [16]: > 100 µM (inactive)

Oc1cccc2nc3cc(CN4CCOCC4)c(CN4CCOCC4)cc3nc12
GI50 [1]: > 100 µM (inactive)
GI50 [2]: 40.5 µM (inactive)
GI50 [3]: 44.9 µM (inactive)
GI50 [4]: 56.9 µM (inactive)
GI50 [5]: > 100 µM (inactive)
GI50 [18]: 50.8 µM (inactive)
GI50 [6]: 52 µM (inactive)
GI50 [7]: 34.3 µM (inactive)
GI50 [8]: 67 µM (inactive)
GI50 [9]: 38.3 µM (inactive)
GI50 [10]: 42.2 µM (inactive)
GI50 [11]: 67.3 µM (inactive)
GI50 [13]: 45.8 µM (inactive)
GI50 [14]: 38.3 µM (inactive)
GI50 [15]: 57.3 µM (inactive)
GI50 [16]: > 100 µM (inactive)
GI50 [17]: 40.2 µM (inactive)

O=C(c1ccccc1)c1c(CC(O)c2cccnc2)n(C(=O)c2ccccc2)c2ccccc12 (configuration not stated)
GI50 [2]: 29.4 µM (inactive)
GI50 [3]: 22.5 µM (inactive)
GI50 [4]: 22.3 µM (inactive)
GI50 [18]: 16.5 µM (inactive)
GI50 [6]: 16 µM (inactive)
GI50 [7]: 21.6 µM (inactive)
GI50 [8]: 18.9 µM (inactive)
GI50 [10]: 16.6 µM (inactive)
GI50 [11]: 15.2 µM (inactive)
GI50 [12]: 15.8 µM (inactive)
GI50 [13]: 17.4 µM (inactive)
GI50 [14]: 16.6 µM (inactive)
GI50 [15]: 26.6 µM (inactive)
GI50 [16]: 22.4 µM (inactive)
GI50 [17]: 16.5 µM (inactive)

COc1cc2ccc3c4c(OC)cc(OC)c(OC)c4c([O-])[n+](C)c3c2cc1OC
GI50 [1]: 3.76 µM (inactive)
GI50 [2]: 4.01 µM (inactive)
GI50 [4]: 2.58 µM (inactive)
GI50 [5]: 22.2 µM (inactive)
GI50 [18]: 14.4 µM (inactive)
GI50 [6]: 15.1 µM (inactive)
GI50 [7]: 0.568 µM (active)
GI50 [8]: 4.37 µM (inactive)
GI50 [10]: 7.13 µM (inactive)
GI50 [11]: 18.1 µM (inactive)
GI50 [12]: 0.368 µM (active)
GI50 [13]: 4.47 µM (inactive)
GI50 [14]: > 32.7 µM (inactive)
GI50 [16]: 17.9 µM (inactive)
GI50 [17]: 25.1 µM (inactive)
